# Patent US20240174679A1, “HETEROAROYL AMIDES AS LRRK2 INHIBITORS, PHARMACEUTICAL COMPOSITIONS, AND USES THEREOF” (MERCK SHARP & DOHME LLC, priority 2021, published 2024)
# Target: GST tagged truncated human mutant G2019S LRRK2 (Homo sapiens (Human), UniProt Q5S007, G2019S)
# Assay: LRRK2 Km ATP LanthaScreen Assay
# Format: biochemical
# Details: 134 μM ATP (Km ATP), LRRKtide substrate, negative log of mean IC50 (molar)
# In short: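 Truncated GST-tagged G2019S LRRK2 (1.25 nM enzyme solution) was preincubated with compound for 15 min at rt, then reacted for 90 min with fluorescein-LRRKtide and 134 μM ATP (Km) in Tris pH 8.5/MgCl2 buffer. After an EDTA stop, TR-FRET used a Tb anti-pERM antibody (520/495 nm ratio). IC50 came from a 4-parameter fit and is reported as pIC50, mean of several runs.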
# Chain of GST tagged truncated human mutant G2019S LRRK2 (Q5S007 970-2527 G2019S): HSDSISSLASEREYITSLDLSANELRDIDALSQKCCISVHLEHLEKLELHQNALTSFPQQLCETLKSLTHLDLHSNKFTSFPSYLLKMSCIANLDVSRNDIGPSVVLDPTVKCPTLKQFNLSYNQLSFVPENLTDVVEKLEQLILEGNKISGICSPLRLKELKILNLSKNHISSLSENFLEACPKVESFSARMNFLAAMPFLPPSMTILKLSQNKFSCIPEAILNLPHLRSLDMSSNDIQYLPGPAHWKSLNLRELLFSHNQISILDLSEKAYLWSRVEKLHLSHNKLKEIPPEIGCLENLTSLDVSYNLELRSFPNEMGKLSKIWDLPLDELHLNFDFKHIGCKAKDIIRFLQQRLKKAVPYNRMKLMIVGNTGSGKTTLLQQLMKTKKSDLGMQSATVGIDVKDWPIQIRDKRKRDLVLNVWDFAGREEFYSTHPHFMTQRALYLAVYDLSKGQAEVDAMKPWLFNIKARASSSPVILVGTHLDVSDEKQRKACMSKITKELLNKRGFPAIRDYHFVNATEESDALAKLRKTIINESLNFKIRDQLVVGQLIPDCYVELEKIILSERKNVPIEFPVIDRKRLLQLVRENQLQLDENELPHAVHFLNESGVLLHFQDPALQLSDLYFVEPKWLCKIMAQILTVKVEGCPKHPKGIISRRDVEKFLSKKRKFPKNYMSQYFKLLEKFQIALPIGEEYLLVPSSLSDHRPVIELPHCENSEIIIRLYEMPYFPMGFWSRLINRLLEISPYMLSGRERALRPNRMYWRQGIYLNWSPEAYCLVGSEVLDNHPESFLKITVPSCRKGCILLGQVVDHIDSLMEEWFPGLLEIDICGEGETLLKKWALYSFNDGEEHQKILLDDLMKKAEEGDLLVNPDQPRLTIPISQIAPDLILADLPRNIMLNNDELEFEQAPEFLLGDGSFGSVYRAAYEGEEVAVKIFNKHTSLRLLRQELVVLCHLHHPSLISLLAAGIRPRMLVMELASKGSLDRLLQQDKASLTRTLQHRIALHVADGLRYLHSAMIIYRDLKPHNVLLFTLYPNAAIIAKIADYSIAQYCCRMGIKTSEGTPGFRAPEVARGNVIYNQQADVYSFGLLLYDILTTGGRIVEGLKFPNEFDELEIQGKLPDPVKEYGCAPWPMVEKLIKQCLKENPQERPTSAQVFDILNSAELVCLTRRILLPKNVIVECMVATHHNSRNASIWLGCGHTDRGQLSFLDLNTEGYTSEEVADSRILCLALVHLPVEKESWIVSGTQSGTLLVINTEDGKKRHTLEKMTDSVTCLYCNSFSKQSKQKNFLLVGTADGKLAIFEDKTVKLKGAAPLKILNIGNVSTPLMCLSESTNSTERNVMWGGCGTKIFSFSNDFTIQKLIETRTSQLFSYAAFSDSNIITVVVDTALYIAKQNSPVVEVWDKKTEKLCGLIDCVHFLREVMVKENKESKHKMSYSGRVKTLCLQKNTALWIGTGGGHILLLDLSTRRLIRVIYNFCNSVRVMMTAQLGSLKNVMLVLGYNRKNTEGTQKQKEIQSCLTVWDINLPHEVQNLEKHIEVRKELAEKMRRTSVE
row,Compound,LRRK2 pIC50
1,"O=C(Nc1cnn(CC2CCC2)c1)c1cccc(-c2ccc(F)cc2F)n1 [Example 9-11, N-[1-(cyclobutylmethyl)-1H-pyrazol-4-yl]-6-(2,4-difluorophenyl) pyridine-2-carboxamide]",5.63
2,"Cn1cc(-c2cccc(C(=O)Nc3cnn(CC4CCC4)c3)n2)cn1 [Example 9-25, N-[1-(cyclobutylmethyl)-1H-pyrazol-4-yl]-6-(1-methyl-1H-pyrazol-4-yl)pyridine-2-carboxamide]",7.38
3,"O=C(Nc1cnn(CC2CC(F)(F)C2)c1)c1csc(-c2cn[nH]c2)n1 [Example 1-35, N-{1-[(3,3-difluorocyclobu-tyl)methyl]-1H-pyrazol-4-yl}-2-(1H-pyrazol-4-yl)-1,3-thiazole-4-carboxamide]",7.77
4,"O=C(Nc1cnn(C[C@H]2CCNC2)c1)c1csc(-c2cn[nH]c2)n1 [Example 7-26, 2-(1H-pyrazol-4-yl)-N-(1-{[(3S)-pyrrolidin-3-yl]methyl}-1H-pyrazol-4-yl)-1,3-thiazole-4-carboxamide]",6.84
5,"COc1cccc(C(=O)Nc2cnn(C3CCC3)c2)n1 [Example 4-10, N-(1-cyclobutyl-1H-pyrazol-4-yl)-6-methoxypyridine-2-carboxamide]",5.35
6,"N[C@H]1CC[C@](F)(Cn2cc(NC(=O)c3csc(-c4cn[nH]c4)n3)cn2)CC1 [Example 7-35, N-{1-[(cis-4-amino-1-fluorocyclohexyl)methyl]-1H-pyrazol-4-yl}-2-(1H-pyrazol-4-yl)-1,3-thiazole-4-carboxamide]",6.24
7,"CC(C)(C)n1cc(NC(=O)c2csc(-c3cn[nH]c3)n2)cn1 [Example 1-17, N-(1-tert-butyl-1H-pyrazol-4-yl)-2-(1H-pyrazol-4-yl)-1,3-thiazole-4-carboxamide]",7.22
8,"O=C(Nc1cnn(C[C@@H]2CCNC2)c1)c1csc(-c2cn[nH]c2)n1 [Example 7-30, 2-(1H-pyrazol-4-yl)-N-(1-{[(3R)-pyrrolidin-3-yl]methyl}-1H-pyrazol-4-yl)-1,3-thiazole-4-carboxamide]",6.25
9,"O=C(Nc1cnn(CC2CC2)c1)c1csc(-c2cn[nH]c2)n1 [Example 7-38, N-[1-(cyclopropylmethyl)-1H-pyrazol-4-yl]-2-(1H-pyrazol-4-yl)-1,3-thiazole-4-carboxamide]",8.02
10,"O=C(Nc1cn(C2CC2)nc1C1CC1)c1csc(-c2cn[nH]c2)n1 [Example 1-6, N-(1,3-dicyclopropyl-1H-pyrazol-4-yl)-2-(1H-pyrazol-4-yl)-1,3-thiazole-4-carboxamide]",7.84
11,"Cn1ccc(-c2cccc(C(=O)Nc3cnn(CC4CCC4)c3)n2)c1 [Example 9-32, N-[1-(cyclobutylmethyl)-1H-pyrazol-4-yl]-6-(1-methyl-1H-pyrrol-3-yl)pyridine-2-carboxamide]",6.59
12,"O=C(Nc1cnn(CCN2CCNCC2)c1)c1csc(-c2cn[nH]c2)n1 [Example 7-15, N-{1-[2-(piperazin-1-yl)ethyl]-1H-pyrazol-4-yl}-2-(1H-pyrazol-4-yl)-1,3-thiazole-4-carboxamide]",6.36
13,"O=C(Nc1cn(CC(F)F)nc1C(F)F)c1csc(-c2cn[nH]c2)n1 [Example 7-2, N-[1-(2,2-difluoroethyl)-3-(difluoromethyl)-1H-pyrazol-4-yl]-2-(1H-pyrazol-4-yl)-1,3-thiazole-4-carboxamide]",7.58
14,"COc1ccncc1-c1cccc(C(=O)Nc2cnn(CC3CCC3)c2)n1 [Example 9-30, N-[1-(cyclobutylmethyl)-1H-pyrazol-4-yl]-4′-methoxy-2,3′-bipyridine-6-carboxamide]",6.76
15,"N#CC1CCC(Cn2cc(NC(=O)c3csc(-c4cn[nH]c4)n3)cn2)CC1 (stereo not shown) [Example 7-37, N-{1-[(4-cyanocyclohexyl)methyl]-1H-pyrazol-4-yl}-2-(1H-pyrazol-4-yl)-1,3-thiazole-4-carboxamide]",7.72
16,"CC1(Cn2cc(NC(=O)c3csc(-c4cn[nH]c4)n3)c(C(F)F)n2)COC1 [Example 7-42, N-{3-(difluoromethyl)-1-[(3-methyloxetan-3-yl)methyl]-1H-pyrazol-4-yl}-2-(1H-pyrazol-4-yl)-1,3-thiazole-4-carboxamide]",6.51
17,"O=C(Nc1cnn(CC2CCC2)c1)c1cccc(-c2csc3ccccc23)n1 [Example 9-31, 6-(1-benzothiophen-3-yl)-N-[1-(cyclobutylmethyl)-1H-pyrazol-4-yl]pyridine-2-carboxamide]",5.18
18,"Cc1nn(C(C)C2CC2)cc1NC(=O)c1csc(-c2cn[nH]c2)n1 (single isomer, unassigned) [Example 2-4, (S)- or (R)-N-{1-[1-cyclopropylethyl]-3-methyl-1H-pyrazol-4-yl}-2-(1H-pyrazol-4-yl)-1,3-thiazole-4-carboxamide]",6.82
19,"O=C(Nc1cnn(C2CCOCC2)c1)c1csc(-c2cn[nH]c2)n1 [Example 7-10, 2-(1H-pyrazol-4-yl)-N-[1-(tetrahydro-2H-pyran-4-yl)-1H-pyrazol-4-yl]-1,3-thiazole-4-carboxamide]",7.37

row,Compound,LRRK2 pIC50
1,"CC(C1CC1)n1ncc(NC(=O)c2csc(-c3cn[nH]c3)n2)c1C(F)F (single isomer, unassigned) [Example 3-5, (S)- or (R)—N-(1-(1-cyclopropylethyl)-5-(difluoromethyl)-1H-pyrazol-4-yl)-2-(1H-pyrazol-4-yl)thiazole-4-carboxamide]",5.92
2,"CC(C)Oc1cccc(C(=O)Nc2cnn(C3CCC3)c2)n1 [Example 4-6, N-(1-cyclobutyl-1H-pyrazol-4-yl)-6-(1-methylethoxy) pyridine-2-carboxamide]",7.10
3,"O=C(Nc1cnn(C2CCC2)c1)c1csc(-c2ccccc2)n1 [Example 4-9, N-(1-cyclobutyl-1H-pyrazol-4-yl)-2-phenyl-1,3-thiazole-4-carboxamide]",6.70
4,"CN1CCN(CCCn2cc(NC(=O)c3csc(-c4cn[nH]c4)n3)cn2)CC1 [Example 7-34, N-{1-[3-(4-methylpiperazin-1-yl)propyl]-1H-pyrazol-4-yl}-2-(1H-pyrazol-4-yl)-1,3-thiazole-4-carboxamide]",5.95
5,"COc1nn(CC2(C#N)CC2)cc1NC(=O)c1csc(-c2cn[nH]c2)n1 [Example 7-25, N-{1-[(1-cyanocyclopropyl)methyl]-3-methoxy-1H-pyrazol-4-yl}-2-(1H-pyrazol-4-yl)-1,3-thiazole-4-carboxamide]",7.70
6,"O=C(Nc1cn(C2CCC2)nc1C1CC1)c1csc(-c2cn[nH]c2)n1 [Example 3-2, N-(1-cyclobutyl-3-cyclopropyl-1H-pyrazol-4-yl)-2-(1H-pyrazol-4-yl)-1,3-thiazole-4-carboxamide]",8.35
7,"CC(C#N)n1cc(NC(=O)c2csc(-c3cn[nH]c3)n2)c(C(F)F)n1 (stereo not shown) [Example 7-31, N-[1-(1-cyanoethyl)-3-(difluoromethyl)-1H-pyrazol-4-yl]-2-(1H-pyrazol-4-yl)-1,3-thiazole-4-carboxamide]",7.40
8,"N#CC1(Cn2cc(NC(=O)c3csc(-c4cn[nH]c4)n3)cn2)CCNCC1 [Example 7-28, N-{1-[(4-cyanopiperidin-4-yl)methyl]-1H-pyrazol-4-yl}-2-(1H-pyrazol-4-yl)-1,3-thiazole-4-carboxamide]",6.71
9,"COc1nn(CC2CC2)cc1NC(=O)c1csc(-c2cn[nH]c2)n1 [Example 7-14, N-[1-(cyclopropylmethyl)-3-methoxy-1H-pyrazol-4-yl]-2-(1H-pyrazol-4-yl)-1,3-thiazole-4-carboxamide]",7.92
10,"COCCn1cc(NC(=O)c2csc(-c3cn[nH]c3)n2)cn1 [Example 7-22, N-[1-(2-methoxyethyl)-1H-pyrazol-4-yl]-2-(1H-pyrazol-4-yl)-1,3-thiazole-4-carboxamide]",7.00
11,"NCC1CCC(F)(Cn2cc(NC(=O)c3csc(-c4cn[nH]c4)n3)cn2)CC1 (stereo not shown) [Example 7-36, N-(1-{[4-(aminomethyl)-1-fluorocyclohexyl]methyl}-1H-pyrazol-4-yl)-2-(1H-pyrazol-4-yl)-1,3-thiazole-4-carboxamide]",7.65
12,"O=C(Nc1cnn(C2CCC2)c1)c1ccn(-c2ccccc2)n1 [Example 4-7, N-(1-cyclobutyl-1H-pyrazol-4-yl)-1-phenyl-1H-pyrazole-3-carboxamide]",5.56
13,"N#Cc1cccc(-c2cccc(C(=O)Nc3cnn(CC4CCC4)c3)n2)c1 [Example 9-29, 6-(3-cyanophenyl)-N-[1-(cyclobutylmethyl)-1H-pyrazol-4-yl]pyridine-2-carboxamide]",5.51
14,"Cn1cc(NC(=O)c2csc(-c3cn[nH]c3)n2)c(C(F)(F)F)n1 [Example 1-40, N-[1-methyl-3-(trifluoromethyl)-1H-pyrazol-4-yl]-2-(1H-pyrazol-4-yl)-1,3-thiazole-4-carboxamide]",7.10
15,"O=C(Nc1cnn(C2CCC2)c1)c1csc(-c2cccnc2)n1 [Example 9-39, N-(1-cyclobutyl-1H-pyrazol-4-yl)-2-(pyridin-3-yl)thiazole-4-carboxamide]",7.06
16,"O=C(Nc1cn(CC2CCC2)nc1C(F)F)c1csc(-c2cn[nH]c2)n1 [Example 7-11, N-[1-(cyclobutylmethyl)-3-(difluoromethyl)-1H-pyrazol-4-yl]-2-(1H-pyrazol-4-yl)-1,3-thiazole-4-carboxamide]",7.55
17,"Cn1cc(-c2nc(C(=O)Nc3cnn(C4CCC4)c3)cs2)cn1 [Example 9-28, N-(1-cyclobutyl-1H-pyrazol-4-yl)-2-(1-methyl-1H-pyrazol-4-yl)-1,3-thiazole-4-carboxamide]",7.85
18,"O=C(Nc1cnn(C2CCC2)c1)c1csc(-c2cnn(C(F)F)c2)n1 [Example 9-17, N-(1-cyclobutyl-1H-pyrazol-4-yl)-2-[1-(difluoromethyl)-1H-pyrazol-4-yl]-1,3-thiazole-4-carboxamide]",7.50
